Like-named read-outs stand apart in the source and are kept apart here.
Experiments:
[1] = intravenous administration, cited from earlier work
[2] = pH 6.0; Sheikh et al. (Note 2); cited from earlier work
[3] = 77 mEq per os; normal subjects; cited from earlier work
[4] = test system: parathyroid hormone (PTH) secretion; conditions: maintenance dialysis patients; cited from earlier work
[5] = cited from earlier work
[6] = cited from earlier work; remark: listed apart in the source
[7] = in many patients; cited from earlier work
[8] = hemodialysis or peritoneal dialysis patients; cited from earlier work
[9] = Solubility in water of cationic phosphate binders (Lange's Handbook); conditions: relative hydrophile by solubility in water

C[N+](C)(C)C[C@H](O)CC(=O)[O-] [L-carnitine, L-(−)-Carnitine]
effect on total, LDL and HDL cholesterol [1]: decrease total cholesterol and LDL cholesterol while significantly increasing HDL cholesterol | effect on serum phosphate concentrations ([1]; maintenance hemodialysis patients): reduced the serum phosphate concentrations significantly

Calcium Gluconate
Observed in vitro Pi Binding, % [2]: 90%

Magnesium Acetate
Pi absorption [3]: 28%

[Mg+2].[OH-].[OH-] [Magnesium Hydroxide]
suppression of parathyroid hormone (PTH) secretion [4]: Neither the combination of oral calcium carbonate/magnesium hydroxide nor magnesium hydroxide alone was effective | serum Pi level ([5]; average 734 mg elemental Mg/day, three to five weeks, control (no binders) 9.0 mg/dL): 8.1 mg/dL | mean serum Mg level ([5]; average 734 mg elemental Mg/day, dialysate Mg 1.2 to 1.8 mg/dl): 4.32 mg/dL | patients who developed diarrhea ([5]; nine patients treated): Four of nine | serum Mg level, average ([6]; during Mg(OH)2 treatment): 4.3 mg/dL | serum Pi level ([6]; human, in vivo): 6.1 mg/dL | severe hyperkalemia [7]: ≤ 8 mEq/L

choline magnesium trisalicylate
effect on serum Pi levels [8]: no effect

[O]=[Mg] [Magnesium Oxide]
Hydrophile? [9]: No
